From patent US10829473B2, “Modulators of the cystic fibrosis transmembrane conductance regulator protein and methods of use” (AbbVie Overseas S.Á.R.L., priority 2017, dated 2020) come the findings set out here.

In general, EC50 refers to the concentration that produces a half-maximal response.

Where two headings read alike, the source gives them in different places.

The target of this assay is T1, F508delCFTR (Homo sapiens, UniProt P13569, DEL508-508).
T1 construct: expressed in transfected cells; host or cells: CFBE41o- human lung derived epithelial cells (CFBE41o-F508delCFTR-HRP), doxycycline-inducible
T1 sequence (P13569 with tags, fused parts or gaps DEL508-508): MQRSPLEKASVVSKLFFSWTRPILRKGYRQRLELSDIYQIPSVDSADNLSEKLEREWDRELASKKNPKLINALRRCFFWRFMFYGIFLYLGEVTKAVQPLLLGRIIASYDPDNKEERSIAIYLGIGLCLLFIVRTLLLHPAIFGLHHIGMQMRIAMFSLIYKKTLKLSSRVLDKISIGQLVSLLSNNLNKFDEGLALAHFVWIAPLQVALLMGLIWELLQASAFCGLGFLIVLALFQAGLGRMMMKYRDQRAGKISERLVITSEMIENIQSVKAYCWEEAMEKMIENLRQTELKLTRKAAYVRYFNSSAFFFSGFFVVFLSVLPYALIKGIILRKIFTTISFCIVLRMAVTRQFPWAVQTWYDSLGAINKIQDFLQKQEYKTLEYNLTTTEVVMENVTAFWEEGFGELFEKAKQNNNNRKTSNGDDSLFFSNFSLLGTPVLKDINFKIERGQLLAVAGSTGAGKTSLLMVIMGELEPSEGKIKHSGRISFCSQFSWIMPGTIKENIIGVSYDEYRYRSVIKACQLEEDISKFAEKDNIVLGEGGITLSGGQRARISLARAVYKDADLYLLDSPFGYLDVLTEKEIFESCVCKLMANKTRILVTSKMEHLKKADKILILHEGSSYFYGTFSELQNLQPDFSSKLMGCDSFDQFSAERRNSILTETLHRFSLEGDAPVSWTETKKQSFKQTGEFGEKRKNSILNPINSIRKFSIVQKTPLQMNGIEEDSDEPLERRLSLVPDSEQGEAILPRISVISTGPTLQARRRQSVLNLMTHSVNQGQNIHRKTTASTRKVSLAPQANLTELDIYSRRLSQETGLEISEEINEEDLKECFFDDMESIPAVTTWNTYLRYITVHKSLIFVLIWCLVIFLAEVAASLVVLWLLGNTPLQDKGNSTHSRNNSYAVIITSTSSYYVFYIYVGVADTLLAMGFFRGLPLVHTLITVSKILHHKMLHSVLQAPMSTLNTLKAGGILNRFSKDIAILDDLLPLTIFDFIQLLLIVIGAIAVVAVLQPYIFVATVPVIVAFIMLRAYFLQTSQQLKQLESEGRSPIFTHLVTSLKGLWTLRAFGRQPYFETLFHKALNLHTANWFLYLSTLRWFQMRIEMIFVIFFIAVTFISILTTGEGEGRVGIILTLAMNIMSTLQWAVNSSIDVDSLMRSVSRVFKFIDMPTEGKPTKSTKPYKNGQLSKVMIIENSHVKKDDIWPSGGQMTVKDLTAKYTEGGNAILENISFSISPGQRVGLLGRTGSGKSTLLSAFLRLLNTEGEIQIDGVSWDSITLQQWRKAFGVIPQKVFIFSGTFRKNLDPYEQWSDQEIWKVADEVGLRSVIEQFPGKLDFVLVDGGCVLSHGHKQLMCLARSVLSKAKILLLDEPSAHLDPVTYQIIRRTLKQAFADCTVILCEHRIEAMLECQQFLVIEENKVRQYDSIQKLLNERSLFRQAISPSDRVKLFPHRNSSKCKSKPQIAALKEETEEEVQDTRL
Briefly: Cell Surface Expression-Horse Radish Peroxidase (CSE-HRP) Assay.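 As to EC50 (with co-corrector): co-corrector chromenyl benzoic acid corrector at 2 or 3 µM.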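 As to Maximum % activity (without co-corrector): % of on-plate positive control chromenyl benzoic acid corrector at 2 or 3 µM.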 Format: cell-based. The conditions noted are these: for Maximum % activity (with co-corrector) / Emax: maximum at any tested concentration; for Emax: read-out: Maximum % activity (without co-corrector). The procedure, abridged:
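Corrector compounds were given as 8-point 3-fold series from 20 or 30 μM, with or without a 2 μM co-corrector, for 18-24 h at 33 °C. Surface HRP was read by luminol luminescence as % of positive control; variable-Hill-slope sigmoidal fitting gave EC50 from triplicate plates.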

Where [1] appears, read: test compound alone, without co-corrector, read-out: EC50 (without co-corrector).
Setting [2] is: with co-corrector, read-out: EC50 (with co-corrector).

On to `O=C(NS(=O)(=O)c1ccc2c(c1)CCC2)C1(c2ccc(Cl)cc2Cl)CC1` [Example III-8, 1-(2,4-dichlorophenyl)-N-(2,3-dihydro-1H-indene-5-sulfonyl)cyclopropane-1-carboxamide], for which the EC50 is, setting by setting: under setting [1], greater than 10 µM; under setting [2], 3 to 10 µM. For the same compound, the “Maximum % activity (with co-corrector)” value (with co-corrector) is “++ (≥150 and <350)”. Further, the Emax (without co-corrector) was less than 50%.

Consider `O=C(NS(=O)(=O)c1ccc(Cl)cc1)C1(c2ccc(Cl)cc2Cl)CC1` [Example III-9, N-(4-chlorobenzene-1-sulfonyl)-1-(2,4-dichlorophenyl)cyclopropane-1-carboxamide], for which the EC50 runs as follows: under setting [1], greater than 10 µM; under setting [2], 3 to 10 µM. For the same compound, the “Maximum % activity (with co-corrector)” value (with co-corrector) was “+ (<150)”. Moreover, the Emax (without co-corrector) is less than 50%.

For the compound `O=C(NS(=O)(=O)c1ccc(Cl)cc1)C1(c2cccc(Cl)c2)CC1` [Example III-10, N-(4-chlorobenzene-1-sulfonyl)-1-(3-chlorophenyl)cyclopropane-1-carboxamide], the EC50 was greater than 10 µM under setting [1] and greater than 10 µM under setting [2]. Further, for the setting “with co-corrector”, the “Maximum % activity (with co-corrector)” value is on record as “+ (<150)”. Where the note is “without co-corrector”, the Emax was less than 50%.

Consider `COC(=O)c1csc(S(=O)(=O)NC(=O)C2(c3ccc(Cl)cc3Cl)CC2)c1OC` [Example III-11, methyl 5-{[1-(2,4-dichlorophenyl)cyclopropane-1-carbonyl]sulfamoyl}-4-methoxythiophene-3-carboxylate], for which the EC50 is, setting by setting: under setting [1], greater than 10 µM; under setting [2], greater than 10 µM. In addition, the “Maximum % activity (with co-corrector)” value (with co-corrector) is recorded as “+ (<150)”. The Emax (without co-corrector) is less than 50%.

For the compound `Cc1noc(C)c1S(=O)(=O)NC(=O)C1(c2ccc(Cl)cc2Cl)CC1` [Example III-12, 1-(2,4-dichlorophcnyl)-N-(3,5-dimethyl-1,2-oxazole-4-sulfonyl)cyclopropane-1-carboxamide], the EC50 reads like this: under setting [1], greater than 10 µM; under setting [2], 3 to 10 µM. Besides, the “Maximum % activity (with co-corrector)” value (with co-corrector) is “++ (≥150 and <350)”. Under “without co-corrector”, the Emax is less than 50%.

As to `O=C(NS(=O)(=O)c1ccccc1OC(F)(F)F)C1(c2ccc(Cl)cc2Cl)CC1` [Example III-13, 1-(2,4-dichlorophenyl)-N-[2-(trifluoromethoxy)benzene-1-sulfonyl]cyclopropane-1-carboxamide], the EC50 is 3 to 10 µM under setting [1] and less than 3 µM under setting [2]. Besides, the “Maximum % activity (with co-corrector)” value (with co-corrector) was “++ (≥150 and <350)”. Further, for the setting “without co-corrector”, the Emax was less than 50%.

As for `O=C(NS(=O)(=O)c1ccc(OC(F)(F)F)cc1)C1(c2ccc(Cl)cc2Cl)CC1` [Example III-14, 1-(2,4-dichlorophenyl)-N-[4-(trifluoromethoxy)benzene-1-sulfonyl]cyclopropane-1-carboxamide], the EC50 is greater than 10 µM under setting [1] and greater than 10 µM under setting [2]. The “Maximum % activity (with co-corrector)” value (with co-corrector) is “+ (<150)”. Also, the Emax (without co-corrector) is less than 50%.

As to `O=C(NS(=O)(=O)c1cccc(C(F)(F)F)c1)C1(c2ccc(Cl)cc2Cl)CC1` [Example III-15, 1-(2,4-dichlorophenyl)-N-[3-(trifluoromethyl)benzene-1-sulfonyl]cyclopropane-1-carboxamide], the EC50 reads like this: under setting [1], 3 to 10 µM; under setting [2], 3 to 10 µM. The “Maximum % activity (with co-corrector)” value (with co-corrector) was “++ (≥150 and <350)”. The Emax (without co-corrector) was less than 50%.

For `O=C1CCCN1c1ccc(S(=O)(=O)NC(=O)C2(c3ccc(Cl)cc3Cl)CC2)cc1` [Example III-16, 1-(2,4-dichlorophenyl)-N-[4-(2-oxopyrrolidin-1-yl)benzene-1-sulfonyl]cyclopropane-1-carboxamide], the EC50 is greater than 10 µM under setting [1] and greater than 10 µM under setting [2]. Further, the “Maximum % activity (with co-corrector)” value (with co-corrector) is listed as “+ (<150)”. Further, where the note is “without co-corrector”, the Emax is less than 50%.

`O=C(NS(=O)(=O)c1ccc(-c2ccno2)s1)C1(c2ccc(Cl)cc2Cl)CC1` [Example III-17, 1-(2,4-dichlorophenyl)-N-[5-(1,2-oxazol-5-yl)thiophene-2-sulfonyl]cyclopropane-1-carboxamide]: the EC50 is greater than 10 µM under setting [1] and greater than 10 µM under setting [2]. The “Maximum % activity (with co-corrector)” value (with co-corrector) is on record as “+ (<150)”. For the same compound, for the setting “without co-corrector”, the Emax was less than 50%.

On to `CN(C(=O)C1(c2ccc(Cl)cc2Cl)CC1)S(=O)(=O)c1ccc(Cl)cc1` [Example III-19, N-(4-chlorobenzene-1-sulfonyl)-1-(2,4-dichlorophenyl)-N-methylcyclopropane-1-carboxamide], for which the EC50 by setting is: under setting [1], greater than 10 µM; under setting [2], greater than 10 µM. Besides, the “Maximum % activity (with co-corrector)” value (with co-corrector) was “+ (<150)”. Further, the Emax (without co-corrector) is less than 50%.

As for `CC(C)Oc1ccc(S(=O)(=O)NC(=O)C2(c3ccc(Cl)cc3Cl)CC2)cc1` [Example III-20, 1-(2,4-dichlorophenyl)-N-{4-[(propan-2-yl)oxy]benzene-1-sulfonyl}cyclopropane-1-carboxamide], the EC50 reads like this: under setting [1], greater than 10 µM; under setting [2], greater than 10 µM. Moreover, the “Maximum % activity (with co-corrector)” value (with co-corrector) was “+ (<150)”. Moreover, the Emax (without co-corrector) was less than 50%.

With `O=C(OCc1ccccc1)N1CCC(S(=O)(=O)NC(=O)C2(c3ccc(Cl)cc3Cl)CC2)CC1` [Example III-22, benzyl 4-{[1-(2,4-dichlorophenyl)cyclopropane-1-carbonyl]sulfamoyl}piperidine-1-carboxylate], the EC50 under setting [1] was greater than 10 µM and the EC50 under setting [2] fell in the range of 3 to 10 µM. Moreover, the “Maximum % activity (with co-corrector)” value (with co-corrector) was “++ (≥150 and <350)”. For the same compound, for the setting “without co-corrector”, the Emax is less than 50%.

For `O=C(NS(=O)(=O)c1ccccc1Cl)C1(c2cccc(Cl)c2)CC1` [Example III-23, N-(2-chlorobenzene-1-sulfonyl)-1-(3-chlorophenyl)cyclopropane-1-carboxamide], the EC50 reads like this: under setting [1], 3 to 10 µM; under setting [2], 3 to 10 µM. The “Maximum % activity (with co-corrector)” value (with co-corrector) was “+++ (≥350)”. For the same compound, where the note is “without co-corrector”, the Emax fell in the range of 50 to 150%.

Turning to `COc1ccc(S(=O)(=O)NC(=O)C2(c3ccc(Cl)cc3Cl)CC2)cc1` [Example III-24, 1-(2,4-dichlorophenyl)-N-(4-methoxybenzene-1-sulfonyl)cyclopropane-1-carboxamide], the EC50 was greater than 10 µM under setting [1] and greater than 10 µM under setting [2]. Under “with co-corrector”, the “Maximum % activity (with co-corrector)” value is “++ (≥150 and <350)”. Moreover, the Emax (without co-corrector) was less than 50%.

Take `COc1ccc(S(=O)(=O)NC(=O)C2(c3ccc(Cl)cc3Cl)CC2)cc1OC` [Example III-25, 1-(2,4-dichlorophenyl)-N-(3,4-dimethoxybenzene-1-sulfonyl)cyclopropane-1-carboxamide]: the EC50 reads like this: under setting [1], greater than 10 µM; under setting [2], 3 to 10 µM. Also, under “with co-corrector”, the “Maximum % activity (with co-corrector)” value was “+ (<150)”. Besides, the Emax (without co-corrector) was less than 50%.

In the case of `O=C(NS(=O)(=O)c1cccc(Cl)c1)C1(c2ccc(Cl)cc2Cl)CC1` [Example III-26, N-(3-chlorobenzene-1-sulfonyl)-1-(2,4-dichlorophenyl)cyclopropane-1-carboxamide], the EC50 lay in the range of 3 to 10 µM under setting [1] and 3 to 10 µM under setting [2]. The “Maximum % activity (with co-corrector)” value (with co-corrector) is “++ (≥150 and <350)”. In addition, the Emax (without co-corrector) was less than 50%.

On to `O=C(NS(=O)(=O)c1ccc2ccccc2c1)C1(c2ccc(Cl)cc2Cl)CC1` [Example III-27, 1-(2,4-dichlorophenyl)-N-(naphthalene-2-sulfonyl)cyclopropane-1-carboxamide], for which the EC50 is greater than 10 µM under setting [1] and greater than 10 µM under setting [2]. The “Maximum % activity (with co-corrector)” value (with co-corrector) is recorded as “+ (<150)”. The Emax (without co-corrector) was less than 50%.
